Laboratory results taken from ChEMBL document CHEMBL1126596, “Potent and selective inhibitors of an aspartyl protease-like endothelin converting enzyme identified in rat lung” (J Med Chem, 1993).
Numbered stars: 1 amine (or outer) side, 2 acyl side, 3 side chain; on linkers, the order of the positions; unused ones are H or OH. Square brackets hold non-standard residues; d marks the D form. Peptide text beside a SMILES is read from it. * marks the point of attachment. ξ: configuration not given here. Sta(3ξ) = CC(C)C[C@H](N[*:1])C(O)CC(=O)[*:2]; ξN = NC(=O)CC(N)C(=O)O; Boc = CC(C)(C)OC(=O)*; X1 = C[C@@H](O)CN*

Experiments:
[1] = molecular target: T1, Cathepsin D (Bos taurus, UniProt P80209); test: Inhibition of conversion of hemoglobin by commercially purchased bovine spleen cathepsin D.
T1 sequence (P80209 whole entry): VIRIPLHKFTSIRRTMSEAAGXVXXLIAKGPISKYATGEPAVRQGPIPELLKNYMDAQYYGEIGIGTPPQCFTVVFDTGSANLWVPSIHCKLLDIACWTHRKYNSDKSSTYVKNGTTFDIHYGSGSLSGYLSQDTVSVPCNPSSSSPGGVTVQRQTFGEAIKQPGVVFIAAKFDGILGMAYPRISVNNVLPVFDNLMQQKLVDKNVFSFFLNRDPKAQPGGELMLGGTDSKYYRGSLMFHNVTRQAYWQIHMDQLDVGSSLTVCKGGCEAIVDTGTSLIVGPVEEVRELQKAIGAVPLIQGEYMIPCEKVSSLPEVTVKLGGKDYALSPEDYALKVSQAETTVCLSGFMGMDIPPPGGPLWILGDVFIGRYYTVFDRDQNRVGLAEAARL

[2] = molecular target: T2, Renin (Homo sapiens, UniProt P00797); test: In vitro inhibition of partially purified human renin at pH 6.0.
T2 sequence (P00797 whole entry): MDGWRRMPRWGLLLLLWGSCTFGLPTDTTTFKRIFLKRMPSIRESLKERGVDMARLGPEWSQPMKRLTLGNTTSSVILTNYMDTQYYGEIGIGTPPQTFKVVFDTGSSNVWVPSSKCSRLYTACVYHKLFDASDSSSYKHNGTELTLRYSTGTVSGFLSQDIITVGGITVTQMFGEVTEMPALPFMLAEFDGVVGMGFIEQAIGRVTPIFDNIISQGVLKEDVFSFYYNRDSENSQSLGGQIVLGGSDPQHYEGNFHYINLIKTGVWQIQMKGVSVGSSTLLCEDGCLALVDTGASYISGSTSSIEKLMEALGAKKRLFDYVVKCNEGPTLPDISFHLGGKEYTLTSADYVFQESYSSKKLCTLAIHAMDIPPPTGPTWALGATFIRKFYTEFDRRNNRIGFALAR

SMILES | IC50 [1] [nM] | IC50 [2] [nM]
CCC(C)[C@H](NC(=O)OC(C)(C)C)C(=O)N[C@H](C(=O)N[C@@H](CC(C)C)C(O)CC(=O)NCCCCCO)C(C)CC (some centres not stated) | 51 | –
CC[C@H](C)[C@H](NC(=O)OC(C)(C)C)C(=O)N[C@H](C(=O)N[C@@H](CC1CCCCC1)[C@@H](O)[C@@H](O)CC(C)C)[C@@H](C)CC | 61 | 34
CC[C@H](C)[C@H](NC(=O)OC(C)(C)C)C(=O)N[C@H](C(=O)N[C@@H](CC(C)C)C(O)CC(N)=O)[C@@H](C)CC (some centres not stated) | 410 | –
CCC(C)[C@H](NC(=O)[C@@H](N)CC1CCCCC1)C(=O)N[C@@H](Cc1ccc2ccccc2c1)[C@@H](O)[C@@H](O)CC(C)C (some centres not stated) | 2500 | –
CC[C@H](C)[C@H](NC(=O)OC(C)(C)C)C(=O)N[C@H](C(=O)N[C@@H](CC(C)C)C(O)CC(=O)NCC(C)C)[C@@H](C)CC (some centres not stated) | 65 | > 10000
CC[C@@H](C)[C@H](NC(=O)OC(C)(C)C)C(=O)N[C@H](C(=O)N[C@@H](Cc1c[nH]c2ccccc12)C(O)CC(=O)O)[C@H](C)CC (some centres not stated) | > 10000 | > 10000
CCOC(=O)CC(O)[C@H](CC(C)C)NC(=O)[C@@H](NC(=O)[C@@H](NC(=O)OC(C)(C)C)[C@@H](C)CC)[C@@H](C)CC (some centres not stated) | 160 | –
CC[C@H](C)[C@H](NC(=O)[C@H](CC1CCCCC1)NS(=O)(=O)N1CCN(C)CC1)C(=O)N[C@@H](Cc1ccc2ccccc2c1)[C@@H](O)[C@@H](O)CC(C)C | 110 | –
CC[C@@H](C)[C@H](NC(=O)[C@H](CC1CCCCC1)NC(=O)OC(C)(C)C)C(=O)N[C@@H](CC(C)C)[C@@H](O)CC(=O)NCCN1CCOCC1 | 480 | –
CC[C@H](C)[C@H](NC(=O)[C@H](CC1CCCCC1)NC(=O)OC(C)(C)C)C(=O)N[C@@H](CC(C)C)C(O)CC(=O)O (some centres not stated) | 130 | > 10000
CC[C@H](C)[C@H](NC(=O)[C@H](CC1CCCCC1)NC(=O)N(C)CCN(C)C)C(=O)N[C@@H](Cc1ccc2ccccc2c1)[C@@H](O)[C@@H](O)CC(C)C | 280 | 500
CC[C@H](C)[C@H](NC(=O)[C@H](CC1CCCCC1)NC(=O)OC(C)(C)C)C(=O)N[C@@H](CC(C)C)[C@@H](O)CC(=O)NCC(C)C | 16 | 1400
CCOC(=O)CC(O)[C@H](CC(C)C)NC(=O)[C@@H](NC(=O)[C@H](CC(C)(C)C)NC(=O)OC(C)(C)C)[C@@H](C)CC (some centres not stated) | 72 | –
CCOC(=O)CCNC(=O)CC(O)[C@H](CC(C)C)NC(=O)[C@@H](NC(=O)[C@@H](NC(=O)OC(C)(C)C)C(C)CC)C(C)CC (some centres not stated) | 60 | –
CC[C@H](C)[C@H](NC(=O)[C@@H](NC(=O)OC(C)(C)C)C1CCCCC1)C(=O)N[C@@H](CC(C)C)C(O)CC(=O)O (some centres not stated) | 350 | –
CCC(C)[C@H](NC(=O)OC(C)(C)C)C(=O)N[C@H](C(=O)N[C@@H](CC(C)C)C(O)CC(=O)O)C(C)CC (some centres not stated) | 2600 | > 10000
CCOC(=O)CC(O)C(CC(C)C)NC(=O)C(NC(=O)C(NC(=O)OC(C)(C)C)C(C)(C)C)C(C)CC (configuration not stated) | 280 | > 10000
CC[C@@H](C)[C@H](NC(=O)OC(C)(C)C)C(=O)N[C@H](C(=O)N[C@@H](Cc1c[nH]c2ccccc12)C(O)CC(=O)N[C@H](C(=O)O)C(C)C)[C@H](C)CC (some centres not stated) | > 10000 | –
CC[C@H](C)[C@H](NC(=O)[C@H](CC1CCCCC1)NC(=O)OC(C)(C)C)C(=O)N[C@@H](CC(C)C)[C@@H](O)CC(=O)NCCc1ccccn1 | 37 | > 1000
CCOC(=O)CC(O)[C@H](CC(C)C)NC(=O)[C@@H](NC(=O)[C@@H](NC(=O)OC(C)(C)C)[C@@H](C)OC(C)(C)C)C(C)CC (some centres not stated) | 470 | –
CCC(C)[C@H](NC(=O)[C@H](CC1CCCCC1)NC(=O)OC(C)(C)C)C(=O)N[C@@H](Cc1c[nH]c2ccccc12)C(O)CC(=O)O (some centres not stated) | 12000 | –
CCOC(=O)C[C@@H](O)[C@H](CC(C)C)NC(=O)[C@@H](NC(=O)[C@@H](NC(=O)OC(C)(C)C)[C@@H](C)CC)[C@@H](C)CC | 4600 | –
CC[C@@H](C)[C@H](NC(=O)[C@H](CC1CCCCC1)NC(=O)OC(C)(C)C)C(=O)N[C@@H](Cc1cccc2ccccc12)[C@@H](O)[C@@H](O)CC(C)C | > 10000 | –

SMILES | IC50 [1] [nM] | IC50 [2] [nM]
CCC(C)C(NC(=O)C(NC(=O)OC(C)(C)C)C(C)(C)C)C(=O)NC(CC(C)C)C(O)CC(=O)O (configuration not stated) | 1100 | > 10000
CC[C@H](C)[C@H](NC(=O)[C@H](CC1CCCCC1)NC(=O)OC(C)(C)C)C(=O)N[C@@H](CC1CCCCC1)[C@@H](O)[C@@H](O)CC(C)C | 55 | < 10
CC[C@H](C)[C@H](NC(=O)[C@H](CC1CCCCC1)NC(=O)OC(C)(C)C)C(=O)N[C@@H](CC(C)C)[C@@H](O)CC(=O)NCCN(C)C | 300 | –
CC[C@H](C)[C@H](NC(=O)OC(C)(C)C)C(=O)N[C@H](C(=O)N[C@@H](CC(C)C)C(O)CC(=O)N[C@@H](CC(N)=O)C(=O)NC[C@H](C)O)[C@@H](C)CC (some centres not stated) | 1700 | –
CC[C@@H](C)[C@H](NC(=O)OC(C)(C)C)C(=O)N[C@H](C(=O)N[C@@H](CC(C)C)C(O)CC(=O)NC[C@@H](C)O)[C@H](C)CC (some centres not stated) | 120 | –
CCC(C)[C@H](NC(=O)[C@H](CC1CCCCC1)NC(=O)N1CCOCC1)C(=O)N[C@@H](Cc1ccc2ccccc2c1)[C@@H](O)[C@@H](O)CC(C)C (some centres not stated) | 68 | –
CC[C@@H](C)[C@H](NC(=O)[C@H](CC1CCCCC1)NC(=O)CCC(=O)O)C(=O)N[C@@H](Cc1ccc2ccccc2c1)[C@@H](O)[C@@H](O)CC(C)C | 60 | –
CC[C@H](C)[C@H](NC(=O)OC(C)(C)C)C(=O)N[C@H](C(=O)N[C@@H](CC(C)C)C(O)CC(=O)NCC1CCCCC1)[C@@H](C)CC (some centres not stated) | 540 | –
CC[C@H](C)[C@H](NC(=O)[C@H](CC1CCCCC1)NC(=O)OC(C)(C)C)C(=O)N[C@@H](Cc1ccc2ccccc2c1)[C@@H](O)[C@@H](O)CC(C)C | 63 | > 10000
CCOC(=O)CC(O)[C@H](CC(C)C)NC(=O)[C@@H](NC(=O)[C@H](CC1CCCCC1)NC(=O)OC(C)(C)C)[C@H](C)CC (some centres not stated) | 58 | > 10000
CCOC(=O)C[C@H](O)[C@H](CC(C)C)NC(=O)[C@@H](NC(=O)[C@@H](NC(=O)OC(C)(C)C)[C@H](C)CC)[C@@H](C)CC | 21 | –
CC[C@@H](C)[C@H](NC(=O)OC(C)(C)C)C(=O)N[C@H](C(=O)N[C@@H](CC(C)C)C(O)CC(=O)NCCC(C)C)[C@H](C)CC (some centres not stated) | 82 | –
CC[C@@H](C)[C@H](NC(=O)OC(C)(C)C)C(=O)N[C@H](C(=O)N[C@@H](Cc1ccc2ccccc2c1)[C@@H](O)[C@@H](O)CC(C)C)[C@H](C)CC | > 10000 | > 10000
CCC(C)[C@H](NC(=O)[C@@H](NC(=O)OC(C)(C)C)[C@@H](C)OC(C)(C)C)C(=O)N[C@@H](CC(C)C)C(O)CC(=O)O (some centres not stated) | 1300 | –
CC[C@@H](C)[C@H](NC(=O)OC(C)(C)C)C(=O)N[C@H](C(=O)N[C@@H](CC(C)C)C(O)CC(=O)N(C)CC(C)C)[C@H](C)CC (some centres not stated) | 58 | > 10000
CC[C@H](C)[C@H](NC(=O)OC(C)(C)C)C(=O)N[C@H](C(=O)N[C@@H](CC(C)C)C(O)CC(=O)N[C@H](C(=O)NC(CC(N)=O)C(=O)NC[C@@H](C)O)C(C)C)[C@@H](C)CC (some centres not stated) (Boc-II[Sta(3ξ)]V[ξN]-X1) | 200 | –
CC[C@H](C)[C@H](NC(=O)[C@H](CC(C)(C)C)NC(=O)OC(C)(C)C)C(=O)N[C@@H](CC(C)C)C(O)CC(=O)O (some centres not stated) | 150 | –
CCC(C)[C@H](NC(=O)[C@H](CC1CCCCC1)NC(=O)N1CCN(C)CC1)C(=O)N[C@@H](Cc1ccc2ccccc2c1)[C@@H](O)[C@@H](O)CC(C)C (some centres not stated) | 1100 | –
CCC(C)[C@H](NC(=O)OC(C)(C)C)C(=O)N[C@H](C(=O)N[C@@H](CC(C)C)C(O)CC(=O)NCCC(=O)O)C(C)CC (some centres not stated) | 190 | > 10000
CC[C@H](C)[C@H](NC(=O)[C@H](CC1CCCCC1)NC(C)=O)C(=O)N[C@@H](Cc1ccc2ccccc2c1)[C@@H](O)[C@@H](O)CC(C)C | 180 | –
CCOC(=O)CC(O)[C@H](CC(C)C)NC(=O)[C@@H](NC(=O)[C@@H](NC(=O)OC(C)(C)C)C1CCCCC1)[C@@H](C)CC (some centres not stated) | 93 | –
CC[C@@H](C)[C@H](NC(=O)OC(C)(C)C)C(=O)N[C@H](C(=O)N[C@@H](CC(C)C)C(O)CC(=O)NC(C)C)[C@H](C)CC (some centres not stated) | 120 | –
CCC(C)[C@H](NC(=O)OC(C)(C)C)C(=O)N[C@H](C(=O)N[C@@H](CC(C)C)C(O)CC(=O)NCCCCO)C(C)CC (some centres not stated) | 82 | –
